Where two headings read alike, the source gives them in different places. Values belong to the molecule of their own block, whether it stands above or below them.
Tests used:
[1] = target: T1, recombinant human carbonic anhydrase II, wild type, holoprotein (holo-CA, Zn(II) bound) (Homo sapiens, UniProt P00918); conditions: comparison value, conditions not given; read-out: affinity (dansylamide, comparison value); cited from earlier work
T1 construct: made in house; host or cells: E. coli (inferred from 'as previously described'; b198 states E. coli for the wild type gene, b110 states BL21(DE3)pACA for a variant)

[2] = target: T1, recombinant human carbonic anhydrase II, wild type, holoprotein (holo-CA, Zn(II) bound); assay: Affinity of ABD-M for holo-CA from changes in fluorescence intensity or anisotropy; type: binding; conditions: holocarbonic anhydrase
Excerpt: Our approach for determining metal ions by fluorescence anisotropy is diagrammed in FIG. 16. ABD-M was synthesized by coupling ABD-F (7-fluoro-benz-2-oxa-1,3-diazole-4-sulfonamide; Molecular Probes Cat. No.F-6053) with excess beta-mercaptoethanol in dimethylformamide overnight at room temperature (FIG. 17). […] Recombinant human carbonic anhydrase II was expressed, isolated, and purified; and its Zn(II) removed by treatment with dipicolinate all as previously described. In view of the well-known difficulty of reproducibly preparing solutions with low concentrations of free zinc ion, we prepared a series of metal ion buffers using nitrilotriacetic acid (NTA) and MOPS. […] The concentration of Zn(II) unbound at a particular pH is readily calculable from the known stability constants of the NTA and the pKa's of NTA's ionizable groups (19). […]
Fluorescence spectra, intensities and anisotropies were measured on a Spectronics AB-2 fluorimeter using film polarizers and 4 nm bandpasses. Frequency-dependent phase shifts and demodulations were measured on an ISS K2 phase fluorometer using the UV lines of a Spectra-Physics 2065 argon ion laser for excitation, dimethylPOPOP in ethanol as a reference compound as previously described, and bandpass filters as indicated in the figure legends. […]

[3] = target: T2, wild type human carbonic anhydrase II, holoprotein (holo-CA) (Homo sapiens, UniProt P00918); assay: KD of the diffusible inhibitor ABD-N for the holoprotein; type: binding
T2 construct: made in house; host or cells: E. coli
Procedure: Genes for wild type human carbonic anhydrase II and variants were isolated, constructed, and expressed in E. coli as previously described. ABD-N was synthesized by coupling ABD-F (Molecular Probes, Eugene, Oreg.) with excess ethanolamine in DMF at room temperature for 4 hours and lyophilizing. Zn(II) was removed from holo-CA to make apo-CA by treatment with dipicolinate as previously described. Fluorescence anisotropy measurements were obtained on an SLM AB-2 spectrophotofluorimeter according to the manufacturer's recommendations, under the spectral conditions given in the figures.
The changes in anisotropy are also dramatic, going from 0.08 to 0.23 as the apoprotein becomes saturated with Zn(II) (FIG. 37); the ordinary accuracy and precision of such measurements is ±0.003. The apparent KD of the enzyme for Zn(II) under these conditions is about 20 picomolar, which is somewhat higher than published values obtained under slightly different conditions.
The use of a separate, diffusible inhibitor like ABD-N can create difficulties, however. […] This Cu(II) determination, while clearly representing a […] response, cannot be due to simple collisional quenching by the Cu(II) at these low concentrations,and furthermore is more than one thousand-fold more sensitive than previous fluorescence-based determinations of Cu(II).

[4] = target: T3, recombinant human carbonic anhydrase II, holocarbonic anhydrase II (Homo sapiens, UniProt P00918); assay: Affinity of holocarbonic anhydrase for Dapoxyl sulfonamide from fluorescence intensity changes; type: binding; conditions: from fluorescence intensity changes (data not shown)
T3 construct: made in house; host or cells: E. coli (inferred from 'by the means previously discussed herein'; b110 states E. coli BL21(DE3)pACA for a variant)
Procedure: The recombinant human carbonic anhydrase II was obtained by the means previously discussed herein. Fluorescence spectra and anisotropies were determined on a Spectronics AB-2 spectrophotofluorometer; the former are uncorrected. Fluorescence lifetimes were determined on an ISS K2 multifrequency phase fluorometer using the 442 nm line (30 mW) of a Kimmon HeCd laser (for BTCS) or the ultraviolet lines (100 mW) of a Spectra-Physics model 2065-7S argon ion laser (for dapoxyl sulfonamide) essentially as previously described. […]
In particular, emission of the bound form shifts from a peak at 605 nm to 530 nm, and increases about 90-fold, compared to the free form. […] The advantages of intensity ratios for accuracy in quantitating concentrations of metal ions such as calcium are by now widely appreciated. These intensity changes permit the affinity of holocarbonic anhydrase for Dapoxyl sulfonamide to be determined as […] (data not shown). The intensity increase of dapoxyl sulfonamide is also accompanied by a large increase in fluorescence lifetime. We measured the frequency-dependent phase angles and demodulation of dapoxyl sulfonamide free in solution, in the presence of holocarbonic anhydrase II, and in the presence of sonicated unilamellar vesicles of DOPC/cholesterol 3:1 (0.1 M). […]

Structure (SMILES): CN(C)c1cccc2c(S(N)(=O)=O)cccc12 [dansylamide]
Kd [1]: 800 nM

Kd [2]: 300 nM
Structure (SMILES): NS(=O)(=O)c1ccc(SCCO)c2nonc12 [ABD-M, 7-fluorobenz-2-oxa-1,3,-diazole-4-sulfonamide+beta-mercaptoethanol adduct]

Kd [3]: ~300 nM
Structure (SMILES): NS(=O)(=O)c1ccc(NCCO)c2nonc12 [ABD-N, 7-fluorobenz-2-oxa-1,3,-diazole-4-sulfonamide:ethanolamine adduct]

Kd [4]: 300 nM
Structure (SMILES): CN(C)c1ccc(-c2cnc(-c3ccc(S(N)(=O)=O)cc3)o2)cc1 [Dapoxyl sulfonamide]
